{
  "source": "patent US11780893B2",
  "about": "“Kv1.3 blockers” (Zealand Pharma A/S, priority 2019, dated 2023)",
  "note": "Bridge positions count the residues as written; N and C are the ends. Square brackets hold non-standard residues; d marks the D form. Peptide text beside a SMILES is read from it. Nle = CCCC[C@H](N)C(=O)O",
  "data": [
    {"biological_target": "T1, human Kv1.3 voltage-gated K+ channel (Homo sapiens, UniProt P22001)", "T1 construct": "host or cells: CHO-DUKX", "T1 sequence (P22001 whole entry)": "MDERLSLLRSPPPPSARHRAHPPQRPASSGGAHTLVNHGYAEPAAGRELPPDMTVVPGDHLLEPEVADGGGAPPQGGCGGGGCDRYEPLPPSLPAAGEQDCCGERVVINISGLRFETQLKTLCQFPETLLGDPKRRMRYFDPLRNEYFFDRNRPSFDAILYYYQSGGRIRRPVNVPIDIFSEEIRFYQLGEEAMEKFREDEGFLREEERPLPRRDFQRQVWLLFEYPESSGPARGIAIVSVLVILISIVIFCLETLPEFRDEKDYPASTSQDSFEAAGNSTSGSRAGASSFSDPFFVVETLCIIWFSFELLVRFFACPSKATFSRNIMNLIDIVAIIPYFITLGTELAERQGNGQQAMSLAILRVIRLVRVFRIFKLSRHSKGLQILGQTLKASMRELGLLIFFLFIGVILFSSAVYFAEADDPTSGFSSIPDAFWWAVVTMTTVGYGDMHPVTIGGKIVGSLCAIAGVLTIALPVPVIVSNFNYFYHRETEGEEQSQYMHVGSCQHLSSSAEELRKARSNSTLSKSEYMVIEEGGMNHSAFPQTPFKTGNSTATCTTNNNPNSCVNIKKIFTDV", "assay": "cell-based", "settings": "inhibition of thallium flux, CHO-DUKX cells with human Kv1.3; read-out: IC50", "units": {"IC50": "pM"}, "values": [
      {"smiles": "CCCC[C@@H]1NC(=O)[C@@H]2CSSC[C@H](NC(=O)[C@H](CCCNC(=N)N)NC(C)=O)C(=O)N[C@@H](CO)C(=O)N[C@@H](C)C(=O)N[C@@H](CO)C(=O)N[C@@H](C(C)C)C(=O)N[C@@H](CCC(=O)O)C(=O)N[C@H]3CSSC[C@H](NC(=O)[C@H](CCCCN)NC(=O)[C@H](CCCCN)NC(=O)[C@H](CC(N)=O)NC1=O)C(=O)N[C@@H](CCCCN)C(=O)N[C@H](C(=O)N[C@@H](Cc1ccc(O)cc1)C(=O)N1CCC[C@H]1C(=O)N[C@@H](CCCNC(=N)N)C(=O)O)CSSC[C@H](NC(=O)[C@H](CCCCN)NC(=O)[C@H](CCC(N)=O)NC(=O)[C@H](CCCCN)NC3=O)C(=O)N[C@@H](CC(C)C)C(=O)N[C@@H](CCCCN)C(=O)N[C@@H](C)C(=O)N[C@@H]([C@@H](C)CC)C(=O)NCC(=O)N[C@@H](CO)C(=O)N[C@@H]([C@@H](C)CC)C(=O)N[C@@H](Cc1ccccc1)C(=O)NCC(=O)N[C@@H](CCCCN)C(=O)N2", "note": "[Compound 113] (Ac-RCSASVECKQKCLKAIGSIFGKC[Nle]NKKCKCYPR-OH; disulfide 2-23, 8-28, 12-30)", "IC50": 340},
      {"smiles": "CCCC[C@H](NC(=O)[C@@H]1CCCN1)C(=O)N[C@@H](CCC(=O)O)C(=O)N[C@@H](CCCC)C(=O)N[C@@H](CCCNC(=N)N)C(=O)N[C@H]1CSSC[C@@H]2NC(=O)[C@H](CCCCN)NC(=O)CNC(=O)[C@H](Cc3ccccc3)NC(=O)[C@H]([C@@H](C)CC)NC(=O)[C@H](CO)NC(=O)CNC(=O)[C@H]([C@@H](C)CC)NC(=O)[C@H](C)NC(=O)[C@H](C)NC(=O)[C@H](CC(C)C)NC(=O)[C@@H]3CSSC[C@@H](C(=O)N[C@@H](Cc4ccc(O)cc4)C(=O)N4CCC[C@H]4C(=O)N[C@@H](CCCNC(=N)N)C(=O)O)NC(=O)[C@H](CCCCN)NC(=O)[C@H](CSSC[C@H](NC(=O)[C@H](CCC(=O)O)NC(=O)[C@H](C(C)C)NC(=O)[C@H](CO)NC(=O)[C@H](C)NC(=O)[C@H](CO)NC1=O)C(=O)N[C@@H](CCCCN)C(=O)N[C@@H](CCC(=O)O)C(=O)N[C@@H](CCCCN)C(=O)N3)NC(=O)[C@H](CCCCN)NC(=O)[C@H](CCCCN)NC(=O)[C@H](CC(N)=O)NC(=O)[C@H](CCCC)NC2=O", "note": "[Compound 118] (H-P[Nle]E[Nle]RCSASVECKEKCLAAIGSIFGKC[Nle]NKKCKCYPR-OH; disulfide 6-27, 12-32, 16-34)", "IC50": 1390},
      {"smiles": "CCCC[C@@H]1NC(=O)[C@@H]2CSSC[C@H](NC(=O)[C@H](CCCNC(=N)N)NC(=O)[C@H](CCCC)NC(=O)[C@H](CCC(=O)O)NC(=O)[C@H](CCCC)NC(=O)[C@H]3CCCN3)C(=O)N[C@@H](CO)C(=O)N[C@@H](C)C(=O)N[C@@H](CO)C(=O)N[C@@H](C(C)C)C(=O)N[C@@H](CCC(=O)O)C(=O)N[C@H]3CSSC[C@H](NC(=O)[C@H](CCCCN)NC(=O)[C@H](CCCCN)NC(=O)[C@H](CC(N)=O)NC1=O)C(=O)N[C@@H](CCCCN)C(=O)N[C@H](C(=O)N[C@@H](Cc1ccc(O)cc1)C(=O)N1CCC[C@H]1C(=O)N[C@@H](CCCNC(=N)N)C(=O)O)CSSC[C@H](NC(=O)[C@H](CCCCN)NC(=O)[C@H](CCC(N)=O)NC(=O)[C@H](CCCCN)NC3=O)C(=O)N[C@@H](CC(C)C)C(=O)N[C@@H](C)C(=O)N[C@@H](C)C(=O)N[C@@H]([C@@H](C)CC)C(=O)NCC(=O)N[C@@H](CO)C(=O)N[C@@H]([C@@H](C)CC)C(=O)N[C@@H](Cc1ccccc1)C(=O)NCC(=O)N[C@@H](CCCCN)C(=O)N2", "note": "[Compound 119] (H-[dP][Nle]E[Nle]RCSASVECKQKCLAAIGSIFGKC[Nle]NKKCKCYPR-OH; disulfide 6-27, 12-32, 16-34)", "IC50": 630},
      {"smiles": "CCCC[C@H](NC(=O)[C@@H]1CCCN1)C(=O)N[C@@H](CCC(=O)O)C(=O)N[C@@H](CCCC)C(=O)N[C@@H](CCCNC(=N)N)C(=O)N[C@H]1CSSC[C@@H]2NC(=O)[C@H](CCCCN)NC(=O)CNC(=O)[C@H](Cc3ccccc3)NC(=O)[C@H]([C@@H](C)CC)NC(=O)[C@H](CO)NC(=O)CNC(=O)[C@H]([C@@H](C)CC)NC(=O)[C@H](C)NC(=O)[C@H](C)NC(=O)[C@H](CC(C)C)NC(=O)[C@@H]3CSSC[C@@H](C(=O)N[C@@H](Cc4ccc(O)cc4)C(=O)N[C@@H](CCCNC(=N)N)C(=O)O)NC(=O)[C@H](CCCCN)NC(=O)[C@H](CSSC[C@H](NC(=O)[C@H](CCC(=O)O)NC(=O)[C@H](C(C)C)NC(=O)[C@H](CO)NC(=O)[C@H](C)NC(=O)[C@H](CO)NC1=O)C(=O)N[C@@H](CCCCN)C(=O)N[C@@H](CCC(N)=O)C(=O)N[C@@H](CCCCN)C(=O)N3)NC(=O)[C@H](CCCCN)NC(=O)[C@H](CCCCN)NC(=O)[C@H](CC(N)=O)NC(=O)[C@H](CCCC)NC2=O", "note": "[Compound 120] (H-P[Nle]E[Nle]RCSASVECKQKCLAAIGSIFGKC[Nle]NKKCKCYR-OH; disulfide 6-27, 12-32, 16-34)", "IC50": 894},
      {"smiles": "CCCC[C@@H]1NC(=O)[C@@H]2CSSC[C@H](NC(=O)[C@H](CCCNC(=N)N)NC(=O)[C@H](CCCC)NC(=O)[C@H](CCC(=O)O)NC(=O)[C@@H](N)CCCC)C(=O)N[C@@H](CO)C(=O)N[C@@H](C)C(=O)N[C@@H](CO)C(=O)N[C@@H](C(C)C)C(=O)N[C@@H](CCC(=O)O)C(=O)N[C@H]3CSSC[C@H](NC(=O)[C@H](CCCCN)NC(=O)[C@H](CCCCN)NC(=O)[C@H](CC(N)=O)NC1=O)C(=O)N[C@@H](CCCCN)C(=O)N[C@H](C(=O)N[C@@H](Cc1ccc(O)cc1)C(=O)N1CCC[C@H]1C(=O)N[C@@H](CCCNC(=N)N)C(=O)O)CSSC[C@H](NC(=O)[C@H](CCCCN)NC(=O)[C@H](CCC(N)=O)NC(=O)[C@H](CCCCN)NC3=O)C(=O)N[C@@H](CC(C)C)C(=O)N[C@@H](C)C(=O)N[C@@H](C)C(=O)N[C@@H]([C@@H](C)CC)C(=O)NCC(=O)N[C@@H](CO)C(=O)N[C@@H]([C@@H](C)CC)C(=O)N[C@@H](Cc1ccccc1)C(=O)NCC(=O)N[C@@H](CCCCN)C(=O)N2", "note": "[Compound 121] (H-[Nle]E[Nle]RCSASVECKQKCLAAIGSIFGKC[Nle]NKKCKCYPR-OH; disulfide 5-26, 11-31, 15-33)", "IC50": 451},
      {"smiles": "CCCC[C@H](NC(=O)[C@@H]1CCCN1)C(=O)N[C@@H](CCC(=O)O)C(=O)N[C@@H](CCCC)C(=O)N[C@@H](CCCNC(=N)N)C(=O)N[C@H]1CSSC[C@@H]2NC(=O)[C@H](CCCCN)NC(=O)CNC(=O)[C@H](Cc3ccccc3)NC(=O)[C@H]([C@@H](C)CC)NC(=O)[C@H](CO)NC(=O)CNC(=O)[C@H]([C@@H](C)CC)NC(=O)[C@H](C)NC(=O)[C@H](C)NC(=O)[C@H](CC(C)C)NC(=O)[C@@H]3CSSC[C@@H](C(=O)N[C@@H](Cc4ccc(O)cc4)C(=O)N4CCC[C@H]4C(=O)N[C@@H](CCCNC(=N)N)C(=O)N[C@@H](CCCNC(=N)N)C(=O)O)NC(=O)[C@H](CCCCN)NC(=O)[C@H](CSSC[C@H](NC(=O)[C@H](CCC(=O)O)NC(=O)[C@H](C(C)C)NC(=O)[C@H](CO)NC(=O)[C@H](C)NC(=O)[C@H](CO)NC1=O)C(=O)N[C@@H](CCCCN)C(=O)N[C@@H](CCC(N)=O)C(=O)N[C@@H](CCCCN)C(=O)N3)NC(=O)[C@H](CCCCN)NC(=O)[C@H](CCCCN)NC(=O)[C@H](CC(N)=O)NC(=O)[C@H](CCCC)NC2=O", "note": "[Compound 122] (H-P[Nle]E[Nle]RCSASVECKQKCLAAIGSIFGKC[Nle]NKKCKCYPRR-OH; disulfide 6-27, 12-32, 16-34)", "IC50": 226},
      {"smiles": "CCCC[C@H](NC(=O)[C@@H]1CCCN1)C(=O)N[C@@H](CCC(=O)O)C(=O)N[C@@H](CCCC)C(=O)N[C@@H](CCCNC(=N)N)C(=O)N[C@H]1CSSC[C@@H]2NC(=O)[C@H](CCCCN)NC(=O)CNC(=O)[C@H](Cc3ccccc3)NC(=O)[C@H]([C@@H](C)CC)NC(=O)[C@H](CO)NC(=O)CNC(=O)[C@H]([C@@H](C)CC)NC(=O)[C@H](C)NC(=O)[C@H](C)NC(=O)[C@H](CC(C)C)NC(=O)[C@@H]3CSSC[C@@H](C(=O)N[C@@H](Cc4ccc(O)cc4)C(=O)N4CCC[C@H]4C(=O)N[C@@H](CCCNC(=N)N)C(=O)N[C@@H](Cc4ccc(O)cc4)C(=O)O)NC(=O)[C@H](CCCCN)NC(=O)[C@H](CSSC[C@H](NC(=O)[C@H](CCC(=O)O)NC(=O)[C@H](C(C)C)NC(=O)[C@H](CO)NC(=O)[C@H](C)NC(=O)[C@H](CO)NC1=O)C(=O)N[C@@H](CCCCN)C(=O)N[C@@H](CCC(N)=O)C(=O)N[C@@H](CCCCN)C(=O)N3)NC(=O)[C@H](CCCCN)NC(=O)[C@H](CCCCN)NC(=O)[C@H](CC(N)=O)NC(=O)[C@H](CCCC)NC2=O", "note": "[Compound 123] (H-P[Nle]E[Nle]RCSASVECKQKCLAAIGSIFGKC[Nle]NKKCKCYPRY-OH; disulfide 6-27, 12-32, 16-34)", "IC50": 1040},
      {"smiles": "CCCC[C@H](NC(=O)[C@@H]1CCCN1)C(=O)N[C@@H](CCC(=O)O)C(=O)N[C@@H](CCCC)C(=O)N[C@@H](CCCNC(=N)N)C(=O)N[C@H]1CSSC[C@@H]2NC(=O)[C@H](CCCCN)NC(=O)CNC(=O)[C@H](Cc3ccccc3)NC(=O)[C@H]([C@@H](C)CC)NC(=O)[C@H](CO)NC(=O)CNC(=O)[C@H]([C@@H](C)CC)NC(=O)[C@H](C)NC(=O)[C@H](C)NC(=O)[C@H](CC(C)C)NC(=O)[C@@H]3CSSC[C@@H](C(=O)N[C@@H](Cc4ccc(O)cc4)C(=O)N4CCC[C@H]4C(=O)N[C@@H](CCCNC(=N)N)C(=O)N[C@@H](CC(C)C)C(=O)O)NC(=O)[C@H](CCCCN)NC(=O)[C@H](CSSC[C@H](NC(=O)[C@H](CCC(=O)O)NC(=O)[C@H](C(C)C)NC(=O)[C@H](CO)NC(=O)[C@H](C)NC(=O)[C@H](CO)NC1=O)C(=O)N[C@@H](CCCCN)C(=O)N[C@@H](CCC(N)=O)C(=O)N[C@@H](CCCCN)C(=O)N3)NC(=O)[C@H](CCCCN)NC(=O)[C@H](CCCCN)NC(=O)[C@H](CC(N)=O)NC(=O)[C@H](CCCC)NC2=O", "note": "[Compound 124] (H-P[Nle]E[Nle]RCSASVECKQKCLAAIGSIFGKC[Nle]NKKCKCYPRL-OH; disulfide 6-27, 12-32, 16-34)", "IC50": 1470}
    ]}
  ]
}
